{"source": "paper PMC4910395", "about": "(Bioorganic & medicinal chemistry, 2015)", "key": {"[1]": {"target": "NMDA receptor, [^3H]MK-801 binding", "settings": "read-out: IC50, inhibition of [^3H]MK-801 binding to rat brain membranes; 5, 4 and 3 methylene groups between the oxygens; cited from earlier work"}, "[2]": {"target": "T1, NMDA receptor (NR), [^3H]ifenprodil binding site (Rattus norvegicus, UniProt P35439+Q00960)", "T1 sequence (Q00960 27-1482, other chains not shown)": "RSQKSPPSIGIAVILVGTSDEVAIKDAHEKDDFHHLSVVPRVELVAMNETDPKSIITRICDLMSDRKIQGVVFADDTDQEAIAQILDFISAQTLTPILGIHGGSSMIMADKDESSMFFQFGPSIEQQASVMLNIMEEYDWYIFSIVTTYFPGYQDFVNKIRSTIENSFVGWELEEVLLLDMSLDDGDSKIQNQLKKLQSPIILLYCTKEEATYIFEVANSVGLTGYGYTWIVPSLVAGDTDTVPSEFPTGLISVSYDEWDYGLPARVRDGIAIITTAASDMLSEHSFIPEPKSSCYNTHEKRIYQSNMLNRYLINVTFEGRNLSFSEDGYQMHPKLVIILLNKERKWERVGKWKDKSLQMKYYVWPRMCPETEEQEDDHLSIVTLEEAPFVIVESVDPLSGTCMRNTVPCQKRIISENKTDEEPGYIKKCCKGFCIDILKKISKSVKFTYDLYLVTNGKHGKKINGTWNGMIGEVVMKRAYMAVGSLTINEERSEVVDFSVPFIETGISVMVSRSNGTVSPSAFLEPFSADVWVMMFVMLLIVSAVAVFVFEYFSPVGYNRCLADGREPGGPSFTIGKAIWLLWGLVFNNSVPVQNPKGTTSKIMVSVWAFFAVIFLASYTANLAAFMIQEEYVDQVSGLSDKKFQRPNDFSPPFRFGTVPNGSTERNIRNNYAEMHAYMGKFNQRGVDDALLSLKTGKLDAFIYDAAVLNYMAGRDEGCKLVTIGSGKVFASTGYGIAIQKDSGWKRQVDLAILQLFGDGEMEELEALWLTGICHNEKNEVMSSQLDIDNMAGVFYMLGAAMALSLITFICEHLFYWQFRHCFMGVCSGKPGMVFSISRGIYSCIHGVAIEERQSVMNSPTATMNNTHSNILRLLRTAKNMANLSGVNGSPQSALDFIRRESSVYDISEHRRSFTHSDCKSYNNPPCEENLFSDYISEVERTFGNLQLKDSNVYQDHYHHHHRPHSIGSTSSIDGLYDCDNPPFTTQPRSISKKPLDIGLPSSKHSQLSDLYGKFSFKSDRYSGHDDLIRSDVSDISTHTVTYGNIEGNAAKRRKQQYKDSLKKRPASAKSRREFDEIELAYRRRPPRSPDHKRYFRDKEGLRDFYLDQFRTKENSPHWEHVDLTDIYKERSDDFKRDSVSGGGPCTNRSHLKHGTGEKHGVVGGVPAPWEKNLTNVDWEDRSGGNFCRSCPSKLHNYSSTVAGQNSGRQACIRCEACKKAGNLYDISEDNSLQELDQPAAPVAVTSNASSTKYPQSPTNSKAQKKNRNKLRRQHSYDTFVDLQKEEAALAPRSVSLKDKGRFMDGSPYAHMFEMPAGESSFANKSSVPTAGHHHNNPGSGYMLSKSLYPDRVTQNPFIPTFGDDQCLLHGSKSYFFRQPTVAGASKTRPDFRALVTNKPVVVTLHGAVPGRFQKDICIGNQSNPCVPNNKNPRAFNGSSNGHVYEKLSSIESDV", "assay": "biochemical"}, "[3]": {"target": "NMDA receptor (NR), channel binding site labeled with [^3H]MK-801 (Rattus norvegicus, UniProt P35439+Q00959+Q00960)", "sequence (Q00959 23-1464, other chains not shown)": "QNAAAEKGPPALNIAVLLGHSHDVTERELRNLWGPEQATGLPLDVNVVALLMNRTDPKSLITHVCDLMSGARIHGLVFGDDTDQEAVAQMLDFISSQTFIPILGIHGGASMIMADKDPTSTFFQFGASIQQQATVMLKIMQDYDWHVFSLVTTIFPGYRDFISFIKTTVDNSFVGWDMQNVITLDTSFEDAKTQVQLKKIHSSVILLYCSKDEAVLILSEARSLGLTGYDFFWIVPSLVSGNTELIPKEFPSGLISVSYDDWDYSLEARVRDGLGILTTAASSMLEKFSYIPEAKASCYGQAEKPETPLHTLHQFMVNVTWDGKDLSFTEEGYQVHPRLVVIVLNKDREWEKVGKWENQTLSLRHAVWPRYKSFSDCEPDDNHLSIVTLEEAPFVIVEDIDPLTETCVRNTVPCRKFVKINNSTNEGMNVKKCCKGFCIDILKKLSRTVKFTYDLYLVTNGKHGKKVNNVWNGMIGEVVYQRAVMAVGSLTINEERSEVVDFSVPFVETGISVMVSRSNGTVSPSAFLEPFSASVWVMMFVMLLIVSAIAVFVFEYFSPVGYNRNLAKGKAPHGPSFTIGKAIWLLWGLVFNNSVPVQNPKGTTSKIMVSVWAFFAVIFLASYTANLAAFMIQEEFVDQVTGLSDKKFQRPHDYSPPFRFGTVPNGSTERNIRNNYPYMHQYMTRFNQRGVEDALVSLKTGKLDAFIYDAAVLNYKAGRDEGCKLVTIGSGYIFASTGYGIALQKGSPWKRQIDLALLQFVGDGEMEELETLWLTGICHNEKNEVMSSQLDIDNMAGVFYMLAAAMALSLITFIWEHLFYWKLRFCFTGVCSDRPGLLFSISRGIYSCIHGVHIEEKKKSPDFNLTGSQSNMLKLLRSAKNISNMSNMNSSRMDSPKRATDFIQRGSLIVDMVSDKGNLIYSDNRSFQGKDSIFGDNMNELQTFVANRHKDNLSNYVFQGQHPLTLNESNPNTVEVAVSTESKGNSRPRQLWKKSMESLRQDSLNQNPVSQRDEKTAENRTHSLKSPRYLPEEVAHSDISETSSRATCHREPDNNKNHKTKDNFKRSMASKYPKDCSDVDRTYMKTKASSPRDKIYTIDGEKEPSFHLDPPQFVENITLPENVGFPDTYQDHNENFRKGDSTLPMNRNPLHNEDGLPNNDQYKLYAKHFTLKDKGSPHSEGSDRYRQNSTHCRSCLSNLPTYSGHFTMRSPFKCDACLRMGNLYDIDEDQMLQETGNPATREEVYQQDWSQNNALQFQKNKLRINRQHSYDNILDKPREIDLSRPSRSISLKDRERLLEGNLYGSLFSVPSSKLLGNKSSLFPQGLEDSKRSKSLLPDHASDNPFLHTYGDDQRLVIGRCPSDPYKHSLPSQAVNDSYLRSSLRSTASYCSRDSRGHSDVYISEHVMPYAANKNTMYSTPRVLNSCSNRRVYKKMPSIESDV", "sequence (Q00960 27-1482, other chains not shown)": "as the sequence (Q00960 27-1482, other chains not shown) above", "assay": "Inhibition of [^3H]MK-801 binding to rat cortical membranes", "settings": "for IC50: in presence of 30 µM spermine; for [^3H]MK-801 Ratio IC50 (30 µM spm)/IC50 (no spm): mean ratio, spermine sensitivity"}, "[4]": {"target": "T1, NMDA receptor (NR), [^3H]ifenprodil binding site", "settings": "pH 7.4"}, "[5]": {"system": "NRs in native membranes", "settings": "native membranes from rat frontoparietal cortex and hippocampus; cited from earlier work"}, "[6]": {"settings": "[^3H]MK-801 IC50 ± SD (n), 30 µM spm"}, "[7]": {"settings": "read-out: [^3H]MK-801 IC50 ± SD (n), 30 µM spm"}}, "note": "Where a name gives a salt, the structure may show the parent alone. Read-outs that look alike come from different tables or passages of the source.", "data": [{"molecule": "N=C(N)c1ccc(OCCCCCOc2ccc(C(=N)N)cc2)cc1", "note": "[compound 1, Pentamidine, reference compound]", "values": [{"measurement": "IC50", "setting": "[1]", "result": 2.59, "unit": "µM"}, {"measurement": "IC50", "setting": "[2]", "result": 32.5, "unit": "µM"}, {"measurement": "IC50", "setting": "[3]; [6]", "result": "24.9 ± 5.7", "unit": "µM"}, {"measurement": "[^3H]MK-801 Ratio IC50 (30 µM spm)/IC50 (no spm)", "setting": "[3]", "result": "9.1 ± 2.5 (7)"}]}, {"molecule": "N=C(N)c1ccc(N2CCN(c3ccc(C(=N)N)cc3)CC2)cc1", "note": "[compound 16]", "values": [{"measurement": "[^3H]MK-801 Ratio IC50 (30 µM spm)/IC50 (no spm)", "setting": "[3]", "result": "26.2 (2)"}]}, {"molecule": "N=C(N)c1ccc(-c2ccc(-c3nc4ccc(C(=N)N)cc4[nH]3)s2)cc1", "note": "[compound 74]", "values": [{"measurement": "[^3H]MK-801 Ratio IC50 (30 µM spm)/IC50 (no spm)", "setting": "[3]", "result": "4.14 (2)"}]}, {"molecule": "N,N-Bis[2-(1-amidino-3-methoxyphenoxy)ethyl]-4-methylbenzenesulfonamide dihydrochloride [compound 15]", "values": [{"measurement": "IC50", "setting": "[4]", "result": 0.84, "unit": "µM"}, {"measurement": "IC50", "setting": "[3]; [7]", "result": "28.7 ± 4.4", "unit": "µM"}]}, {"molecule": "N=C(N)c1ccc(NC(=O)c2ccc(C(=O)Nc3ccc(C(=N)N)cc3)cc2)cc1", "note": "[compound 62]", "values": [{"measurement": "[^3H]MK-801 Ratio IC50 (30 µM spm)/IC50 (no spm)", "setting": "[3]", "result": "0.96 (2)"}]}, {"molecule": "N=C(N)c1ccc(NC(=O)c2cccc(C(=O)Nc3ccc(C(=N)N)cc3)c2)cc1", "note": "[compound 61]", "values": [{"measurement": "[^3H]MK-801 Ratio IC50 (30 µM spm)/IC50 (no spm)", "setting": "[3]", "result": "0.97 (2)"}]}, {"molecule": "N=C(NCCCO)c1ccc(N2CCCN(c3ccc(/C(N)=N/CCCO)cc3)CC2)cc1", "note": "[compound 31]", "values": [{"measurement": "[^3H]MK-801 Ratio IC50 (30 µM spm)/IC50 (no spm)", "setting": "[3]", "result": "9.72 (2)"}]}, {"molecule": "N=C(N)c1ccc(NCCCNc2ccc(C(=N)N)cc2)cc1", "note": "[compound 39]", "values": [{"measurement": "[^3H]MK-801 Ratio IC50 (30 µM spm)/IC50 (no spm)", "setting": "[3]", "result": "17.0 (2)"}]}, {"molecule": "CN(CCN(C)c1ccc(C(=N)N)cc1)c1ccc(C(=N)N)cc1", "note": "[compound 37]", "values": [{"measurement": "[^3H]MK-801 Ratio IC50 (30 µM spm)/IC50 (no spm)", "setting": "[3]", "result": "20.9 (2)"}]}, {"molecule": "N=C(N)c1ccc(C(=O)Nc2cccc(NC(=O)c3ccc(C(=N)N)cc3)n2)cc1", "note": "[compound 67]", "values": [{"measurement": "[^3H]MK-801 Ratio IC50 (30 µM spm)/IC50 (no spm)", "setting": "[3]", "result": "1.85 (2)"}]}, {"molecule": "CN(CCNc1ccc(C(=N)N)cc1)c1ccc(C(=N)N)cc1", "note": "[compound 35]", "values": [{"measurement": "[^3H]MK-801 Ratio IC50 (30 µM spm)/IC50 (no spm)", "setting": "[3]", "result": "30.2 (2)"}]}, {"molecule": "N=C(N)c1ccc(C(=O)NCCCCCCNC(=O)c2ccc(C(=N)N)cc2)cc1", "note": "[compound 55]", "values": [{"measurement": "[^3H]MK-801 Ratio IC50 (30 µM spm)/IC50 (no spm)", "setting": "[3]", "result": "4.59 (2)"}]}, {"molecule": "N=C(N)c1ccc(-c2ccc(-c3ccc(-c4ccc(C(=N)N)o4)s3)s2)o1", "note": "[compound 75]", "values": [{"measurement": "[^3H]MK-801 Ratio IC50 (30 µM spm)/IC50 (no spm)", "setting": "[3]", "result": "4.26 (2)"}]}, {"molecule": "N=C(NC1CC1)c1ccc(N2CCN(c3ccc(C(=N)NC4CC4)cc3)CC2)cc1", "note": "[compound 18]", "values": [{"measurement": "[^3H]MK-801 Ratio IC50 (30 µM spm)/IC50 (no spm)", "setting": "[3]", "result": "21.8 (2)"}]}, {"molecule": "N=C(N)c1ccc(NCCCCCCCNc2ccc(C(=N)N)cc2)cc1", "note": "[compound 43, 1,7-Bis[(1-amidinophenyl)amino]heptane dihydrochloride]", "values": [{"measurement": "[^3H]MK-801 Ratio IC50 (30 µM spm)/IC50 (no spm)", "setting": "[3]", "result": "5.37 (2)"}]}, {"molecule": "CC(C)(C)/N=C(\\N)c1ccc(N2CCCN(c3ccc(/C(N)=N/C(C)(C)C)cc3)CC2)cc1", "note": "[compound 27]", "values": [{"measurement": "[^3H]MK-801 Ratio IC50 (30 µM spm)/IC50 (no spm)", "setting": "[3]", "result": "16.8 (2)"}]}, {"molecule": "N=C(N)NCCCCNC(=N)N", "note": "[Arcaine, reference compound]", "values": [{"measurement": "[^3H]MK-801 Ratio IC50 (30 µM spm)/IC50 (no spm)", "setting": "[3]", "result": "33.6 (2)"}]}, {"molecule": "N=C(N)c1ccc(-c2ccc(-c3ccc(C(=N)N)cc3)c(F)c2)cc1", "note": "[compound 73]", "values": [{"measurement": "[^3H]MK-801 Ratio IC50 (30 µM spm)/IC50 (no spm)", "setting": "[3]", "result": "4.63 (2)"}]}, {"molecule": "N=C(N)c1ccc(OC(=O)c2ccc(C(=O)Oc3ccc(C(=N)N)cc3)cc2)cc1", "note": "[compound 60]", "values": [{"measurement": "IC50", "setting": "[2]", "result": 38.6, "unit": "µM"}, {"measurement": "[^3H]MK-801 Ratio IC50 (30 µM spm)/IC50 (no spm)", "setting": "[3]", "result": "3.98 (2)"}]}, {"molecule": "N=C(N)c1ccc(OCc2ccccc2COc2ccc(C(=N)N)cc2)cc1", "note": "[compound 57]", "values": [{"measurement": "IC50", "setting": "[2]", "result": 2.05, "unit": "µM"}]}, {"molecule": "N=C(N)c1ccc(SCCOCCSc2ccc(C(=N)N)cc2)cc1", "note": "[compound 5]", "values": [{"measurement": "IC50", "setting": "[3]; [6]", "result": "23.8 ± 2.7", "unit": "µM"}, {"measurement": "[^3H]MK-801 Ratio IC50 (30 µM spm)/IC50 (no spm)", "setting": "[3]", "result": "20.2 ± 6.1 (3)"}]}, {"molecule": "N=C(N)c1ccc(NC(=O)CCCC(=O)Nc2ccc(C(=N)N)cc2)cc1", "note": "[compound 45]", "values": [{"measurement": "IC50", "setting": "[2]", "result": 65.6, "unit": "µM"}, {"measurement": "Fold weaker than pentamidine", "setting": "[3]; no spermine", "result": 100, "unit": "fold"}]}, {"molecule": "N=C(N)c1ccc(NC(=O)CCCCC(=O)Nc2ccc(C(=N)N)cc2)cc1", "note": "[compound 46]", "values": [{"measurement": "[^3H]MK-801 Ratio IC50 (30 µM spm)/IC50 (no spm)", "setting": "[3]", "result": "3.46 (2)"}]}, {"molecule": "CCN(CCN(CC)c1ccc(C(=N)N)cc1)c1ccc(C(=N)N)cc1", "note": "[compound 38]", "values": [{"measurement": "[^3H]MK-801 Ratio IC50 (30 µM spm)/IC50 (no spm)", "setting": "[3]", "result": "11.8 (2)"}]}, {"molecule": "1,5-Bis(1-amidino-3-methoxyphenylamino)pentane dihydrochloride [compound 9]", "values": [{"measurement": "IC50", "setting": "[4]", "result": 4.54, "unit": "µM"}]}, {"molecule": "N=C(N)c1ccc(NCCCCCCCCNc2ccc(C(=N)N)cc2)cc1", "note": "[compound 44]", "values": [{"measurement": "[^3H]MK-801 Ratio IC50 (30 µM spm)/IC50 (no spm)", "setting": "[3]", "result": "4.37 (2)"}]}, {"molecule": "1,5-Bis[(1-amidinophenyl)N-methylamino]-3-oxapentane [compound 11]", "values": [{"measurement": "IC50", "setting": "[4]", "result": "21.9 ± 5.2", "unit": "µM"}, {"measurement": "[^3H]MK-801 Ratio IC50 (30 µM spm)/IC50 (no spm)", "setting": "[3]", "result": "15.2 ± 2.2 (3)"}, {"measurement": "IC50", "setting": "[3]; [7]", "result": "12.5 ± 1.8", "unit": "µM"}]}, {"molecule": "N=C(N)c1ccc(-c2ccc(-c3ccc(C(=N)N)s3)s2)s1", "note": "[compound 71, 5,5″-Diamidino-2,2′:5′,2″-terthiophene dihydrochloride]", "values": [{"measurement": "[^3H]MK-801 Ratio IC50 (30 µM spm)/IC50 (no spm)", "setting": "[3]", "result": "1.50 (2)"}]}, {"molecule": "CC/N=C(\\N)c1ccc(-c2ccc(-c3ccc(/C(N)=N/CC)cc3)o2)cc1", "note": "[compound 70]", "values": [{"measurement": "[^3H]MK-801 Ratio IC50 (30 µM spm)/IC50 (no spm)", "setting": "[3]", "result": "2.56 (2)"}]}, {"molecule": "CC(C(O)c1ccc(O)cc1)N1CCC(Cc2ccccc2)CC1", "note": "(stereo not drawn) [ifenprodil]", "values": [{"measurement": "Share of NRs blocked with high affinity", "setting": "[5]", "result": 23, "unit": "%"}]}, {"molecule": "c1cc(N2CCCN(c3ccc(C4=NCCN4)cc3)CC2)ccc1C1=NCCN1", "note": "[compound 32]", "values": [{"measurement": "[^3H]MK-801 Ratio IC50 (30 µM spm)/IC50 (no spm)", "setting": "[3]", "result": "30.1 (2)"}]}, {"molecule": "CCCNC(=N)c1ccc(N2CCN(c3ccc(C(=N)NCCC)cc3)CC2)cc1", "note": "[compound 19]", "values": [{"measurement": "[^3H]MK-801 Ratio IC50 (30 µM spm)/IC50 (no spm)", "setting": "[3]", "result": "21.8 (2)"}]}, {"molecule": "N=C(N)c1ccc(OCc2ccc(COc3ccc(C(=N)N)cc3)cc2)cc1", "note": "[compound 59]", "values": [{"measurement": "IC50", "setting": "[2]", "result": 16.8, "unit": "µM"}]}, {"molecule": "N=C(N)c1ccc(NCCCCNc2ccc(C(=N)N)cc2)cc1", "note": "[compound 41]", "values": [{"measurement": "[^3H]MK-801 Ratio IC50 (30 µM spm)/IC50 (no spm)", "setting": "[3]", "result": "17.2 (2)"}]}, {"molecule": "N=C(N)c1ccc(NCCCCCCNc2ccc(C(=N)N)cc2)cc1", "note": "[compound 42]", "values": [{"measurement": "[^3H]MK-801 Ratio IC50 (30 µM spm)/IC50 (no spm)", "setting": "[3]", "result": "5.26 (2)"}]}, {"molecule": "N=C(N)c1ccc(NC(=O)c2cccc(C(=O)Nc3ccc(C(=N)N)cc3)n2)cc1", "note": "[compound 65]", "values": [{"measurement": "[^3H]MK-801 Ratio IC50 (30 µM spm)/IC50 (no spm)", "setting": "[3]", "result": "1.22 (2)"}]}]}
